Data from patent US20100099757A1, “DISULFIRAM DOSES AND TREATMENT REGIMEN SUITABLE FOR TREATMENT OF ANGIOGENESIS-DEPENDENT DISORDERS” (priority 2006, published 2010).

Experiments:
[1] = oral DSF, cited from earlier work
cancer = details: cited from earlier work
[2] = test system: human malignant cell lines; details: combination of disulfuram and metal ions, in vitro; cited from earlier work
[3] = test system: non-small cell lung cancer; test: Phase II trial of disulfuram with Cisplatin/Vinorelbine in non-small cell lung cancer; assay type: in vivo; details: 120 mg daily (40 mg three times a day) for eighteen weeks, human patients
Source text: A phase II, multicenter, randomized, double blind study was designed to assess the dose response of humans suffering from lung cancer to Disulfuram or a disulfuram-Cisplatin/Vinorelbine combination. Patients with histogically or cytologically documented advanced (i.e. stage Mb or stage IV), or recurrent non-small cell lung cancer, previously untreated with systemic anti-tumor therapy were selected for the study. The patients were randomly assigned to the standard first line hospital chemotherapy treatment (Cisplatin/Vinorelbine) with placebo or Cisplatin/Vinorelbine in combination with disulfuram. Treatment was provided in cycles of 21-day time periods until progression or for a maximum of 6 cycles.
The patients were further assessed for overall survival, time to progression and duration of response.
Standard administration regimens for cisplatin and Vinorelbine were followed.
Placebo capsules included the lactose carrier but were devoid of disulfuram. Each patient received the disulfuram or placebo from the treating physician.

[4] = cited from earlier work
C6 glioma tumor = details: oral administration to mice; cited from earlier work
[5] = molecular target: Cu/Zn Suproxide dismutase (SOD-1) (Homo sapiens, UniProt P00441); details: both in vivo and in vitro; cited from earlier work
[6] = test system: advanced stage IV metastatic melanoma; details: daily 250-500 mg disulfuram and 50 mg zinc gluconate; three months from onset of therapy; cited from earlier work
[7] = test system: bovine capillary endothelial (BCE) cells; details: cited from earlier work
angiogenesis = details: oral administration, CD1 nude mice; cited from earlier work
[8] = test system: acetaldehyde dehydrogenase; details: cited from earlier work
Lewis lung carcinoma = details: oral administration to mice; cited from earlier work
aldehyde dehydrogenase = molecular target: T1, aldehyde dehydrogenase (Rattus norvegicus, UniProt P11884); details: cited from earlier work
T1 sequence (P11884 20-519): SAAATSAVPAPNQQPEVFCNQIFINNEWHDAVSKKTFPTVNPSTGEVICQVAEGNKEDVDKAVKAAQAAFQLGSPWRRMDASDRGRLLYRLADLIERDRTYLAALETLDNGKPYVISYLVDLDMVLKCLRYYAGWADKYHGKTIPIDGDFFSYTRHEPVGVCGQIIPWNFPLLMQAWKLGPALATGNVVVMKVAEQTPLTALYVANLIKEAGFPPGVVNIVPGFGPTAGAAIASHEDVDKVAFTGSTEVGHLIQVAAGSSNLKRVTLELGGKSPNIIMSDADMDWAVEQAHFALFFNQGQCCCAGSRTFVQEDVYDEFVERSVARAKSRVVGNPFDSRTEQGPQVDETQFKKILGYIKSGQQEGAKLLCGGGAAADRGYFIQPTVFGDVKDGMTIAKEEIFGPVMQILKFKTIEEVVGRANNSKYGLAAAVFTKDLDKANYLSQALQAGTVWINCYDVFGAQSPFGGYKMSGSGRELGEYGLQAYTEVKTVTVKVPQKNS

[9] = cultured BCE cells, prevented by copper and antioxidants

Sequence of Cu/Zn Suproxide dismutase (SOD-1) (P00441 whole entry, species assumed): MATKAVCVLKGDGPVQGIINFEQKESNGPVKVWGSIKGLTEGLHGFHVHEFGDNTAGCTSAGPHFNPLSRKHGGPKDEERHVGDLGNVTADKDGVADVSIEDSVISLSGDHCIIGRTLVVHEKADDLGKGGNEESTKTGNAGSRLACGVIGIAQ

CCN(CC)C(=S)SSC(=S)N(CC)CC [disulfuram, bis(diethylthiocarbamoyl) disulfide]
T1/2 ([1]; elimination kinetics): 7.3 h
average time to reach maximum plasma concentration [1]: 8 to 10 h
response rate, time to progression, or median survival (cancer; about 2000 mg/subject disulfuram with 100 mg/m2 cisplatin once every 3-4 weeks, versus cisplatin alone): no statistically-significant difference
gastrointestinal and ototoxicities (cancer; about 2000 mg/subject disulfuram with 100 mg/m2 cisplatin): enhanced
proliferation of human malignant cell lines [2]: inhibited the proliferation
time to progression and survival of non-small cell lung cancer [3]: extending time to progression and survival
soluble in alcohol ([4]; alcohol): about 3.8 g in 100 ml
soluble in water ([4]; water): about 20 mg in 100 ml
C6 glioma tumor development (C6 glioma tumor): significant inhibition
activity of Cu/Zn Suproxide dismutase (SOD-1) [5]: inhibits activity
reduction in tumor size [6]: > 50%
level of glutathione ([7]; BCE cells): reduced the level of glutathione
DNA synthesis [7, 9]: inhibition of DNA synthesis
apoptosis [7, 9]: induction of apoptosis
angiogenesis (angiogenesis): inhibited angiogenesis
concentration of acetaldehyde in the blood versus same amount of alcohol alone ([8]; after alcohol intake under the influence of disulfuram): 5 to 10 times higher
onset of effect ([8]; single dose unit): 1 to 2 h
time of peak effect ([8]; single dose unit): about 12 hours
time effect is sustained ([8]; single dose unit, depends on liver enzymes): 12 to 72 h
duration of effects of a single dose in some individuals ([8]; single dose, some individuals): up to 2 weeks
reduction in the metastatic load of Lewis lung carcinoma (Lewis lung carcinoma): 10-19 fold

CCN(CC)C(=O)SC [Me-DTC, diethylthiomethylcarbamate]
inhibition of aldehyde dehydrogenase (aldehyde dehydrogenase): most powerful irreversible inhibitor
